Data: patent US8969296B2, “TGFP-CAP peptide and its uses” (Caregen Co., Ltd, priority 2007, dated 2015)
Where a SMILES comes first, the peptide text is derived from it.

How the values were obtained:
[1] = tested on: tyrosinase; assay: Tyrosinase activity in extracts of treated B16F10 cells (L-DOPA, absorbance 405 nm); assay type: cell-based; conditions: α-MSH 200 ng/ml, TGFβ-1 10 ng/ml or peptide 10 ng/ml-30 μg/ml, 4 days
Description: The tridecapeptide synthesized in Example 1 was analyzed to decrease levels of melanin pigment. B16F10 cells (Korean Cell Line Bank) were plated in a density of 1×10^5 cells/well and cultured in DMEM (Sigma) for 3 days at 37° C. under 5% CO2 conditions. After cell adhesion was observed, medium was changed with a fresh medium containing 2% serum. Cells were incubated with tested materials in determined concentrations for 4 days at 37° C. under 5% CO2 conditions. The tested materials were prepared in such a manner that components indicated in Table 6 were dissolved in medium and diluted with a mixed solvent of propylene glycol:ethanol:distilled water (5:3:2).
Afterwards, cells were harvested and treated with a lysis buffer containing sodiumdodecylsulfate (Sigma) and Triton X-100 (Sigma) to extract intracellular proteins. The extracted proteins were quantitated by the BCA method. For each experiment group, 90 μl of protein solution and 10 μl of L-DOPA (Sigma) were added and reacted for 30 min. The resultants were analyzed to measure their absorbance values at 405 nm for evaluating tyrosinase activities.

[2] = tested on: Mice melanocytes; assay: Inhibition of melanin generation induced by α-MSH (Dooley method); assay type: cell-based; conditions: α-MSH 200 ng/ml; peptide 10 ng/ml-30 μg/ml; 3 days; absorbance 400 nm
Description: The tridecapeptide synthesized in Example 1 was analyzed to decrease levels of melanin pigment. Mice melanocytes cultured were incubated with α-MSH (melanocyte stimulating hormone/Sigma) and then with the tridecapeptide in the determined concentrations to measure inhibition effects on melanin generation. Mice melanocytes were originated from C57BL/6 mice and cultured in DMEM (Dulbecco's modified Eagle's media) containing 10% fetal bovine serum at 37° C. under 5% CO2 conditions. Cells were cultured in a density of 1×10^5 cells/well and their adhesion to culture plates was observed. Then, cells were incubated with materials to be tested for 3 days. The tested materials were prepared in such a manner that components indicated in Table 5 were dissolved in medium and diluted with a mixed solvent of propylene glycol:ethanol:distilled water (5:3:2). Following removal of medium, cells were washed with PBS and treated with 1 N sodium hydroxide. The resultants were analyzed to measure their absorbance values at 400 nm.

[3] = tested on: B16F10; assay: Cytotoxicity test, SRB colorimetric assay, melanoma cells; assay type: cell-based; conditions: 500 pg/ml-200 μg/ml, 72 hr
Description: (§1) To verify cytotoxicity of peptides of this invention on keratinocytes, fibroblasts and melanoma cells, SRB (Sulforhodamine B) colorimetric assay was carried out using HaCaT, NIH3T3 and B16F10 cells according to Rizzino et al method (Rizzino, et al. Cancer Res., 48:4266 (1988)). HaCaT, NIH3T3 or B16F10 cells (Korean Cell Line Bank) were cultured in 250 ml-flasks containing EMEM (Eagle's minimal essential media, Gibco, U.S.A.) supplemented with […] (fetal bovine serum). Cells cultured were treated with 0.25% trypsin solution to detach cells from the bottom of culture flasks and centrifuged to collect cell pellets. Cells were resuspended in EMEM not containing FBS, its aliquot (1×10^5) cells was added to each well of 96-well plates and cultured under 7% CO2 for 24 hr at 37° C. After 24-hr culture, the medium was changed with a fresh medium not containing serum and cells were incubated with the tridecapeptide (500 pg/ml, 10 ng/ml, 1 μg/ml, 100 μg/ml and 200 μg/ml) dissolved in 10% DMSO for 72 hr under the same conditions as described above. After removing supernatants, cells were washed once using PBS and incubated with SRB solution (Sigma). Cells were washed with PBS and observed under a microscope to find cell viability. In addition, absorbance at 590 nm was measured to analyze cell proliferation.

[4] = tested on: HaCaT; assay: Cytotoxicity test, SRB colorimetric assay, keratinocytes; assay type: cell-based; conditions: 500 pg/ml-200 μg/ml, 72 hr
Description: as §1

[5] = tested on: NIH3T3; assay: Cytotoxicity test, SRB colorimetric assay, fibroblasts; assay type: cell-based; conditions: 500 pg/ml-200 μg/ml, 72 hr
Description: as §1

[6] = tested on: NIH-3T3 cells; assay: Stability analysis: remaining activity of solutions stored at 37° C., by MTT assay; assay type: physicochemical; conditions: 50 mM Tris-HCl (pH 8.0), days 0-100, tridecapeptide 10 μg/ml, TGF-β1 1 μg/ml
Description: To evaluate stability of the purified tridecapeptide, NH2-Ile-Trp-Ser-Leu-Asp-Thr-Gln-Tyr-Gly-Gly-Arg-Gly-Asp-OH, it was dissolved in 50 mM Tris-HCl (pH 8.0) to a concentration of 10 μg/ml. A recombinant TGF-β1 (Sigma) produced by E. coli was prepared as a control in the same buffer to a concentration of 1 μg/ml. The prepared solutions were introduced into glass vials and kept to stand at 37° C. Afterwards, the solutions were taken on days 0, 1, 10, 25, 50, 75 and 100 and subjected to a MTT assay (Scudiero, D. A., et al. Cancer Res. 48:4827-4833 (1988)) using NIH-3T3 cells (Korean Cell Line Bank) for determining their remaining activity (FIG. 2). The results were given as relative values to the activity (100%) of sample taken on day 0.

[7] = tested on: B16F10 cells; assay: Melanosome formation under ERK inhibition by PD98059 (microscopy); assay type: cell-based; conditions: 10 μM PD98059; with 1 ng/ml transforming growth factor or 30 μg/ml tridecapeptide; 4 days
Description: To reveal skin whitening effects of the tridecapeptide synthesized in Example 1 and transforming growth factor, the activation of ERK was inhibited with PD98059 (Sigma) and then its inhibitory influence was evaluated after peptide treatment. B16F10 cells were seeded in 6-well culture dishes in a density of 1×10^5 cells/well and cultured in DMEM for 3 days at 37° C. under 5% CO2 conditions. After cell adhesion was observed, medium was changed with a fresh medium containing 2% serum. The negative control was not subject to any treatment. Cells plated in other two culture dishes were incubated with either 1 ng/ml transforming growth factor or 30 μg/ml tridecapeptide. In addition, cells cultured in other three dishes as a positive control were incubated with 10 μM PD98059 to inhibit ERK phosphorylation. Among them, cells contained in two dishes were incubated for 4 days with either 1 ng/ml transforming growth factor or 30 μg/ml tridecapeptide after 1-hr PD98059 treatment and their morphology was observed under microscopes.

[8] = tested on: TRP-1 (tyrosinase related protein-1) and TRP-2; assay: Levels of TRP-1 and TRP-2 in melanoma cells (Western blotting); assay type: cell-based; conditions: 10 μM PD98059; with 10 ng/ml TGF-β1 or 30 μg/ml tridecapeptide
[9] = tested on: ERK 1/2; assay: Western blotting of Phospho ERK 1/2 in melanoma cells; assay type: cell-based; conditions: 10 μM PD98059; with 10 ng/ml TGF-β1 or 30 μg/ml tridecapeptide
Description: Furthermore, to clearly verify the influence of TGF-β1 and tridecapeptide on signaling events, melanoma cells were cultured as described above and then incubated simultaneously with 10 μM PD98059 and 30 μg/ml tridecapeptide. Proteins from cell extracts were prepared and developed on SDS-PAGE, followed by electro-transferring to PVDF (polyvinylidene difluoride) membrane (GE Health Care). Afterwards, the PVDF membrane was incubated with Phospho ERK 1/2 antibodies (1/3000 diluted, Cell Signaling, USA) for 4 hr at room temperature. The PVDF membrane was washed with a washing buffer and incubated with HRP-conjugated anti-mouse IgG antibodies (1/5000 diluted, SantaCruz, USA). Then, it was washed twice with a washing buffer and incubated with ECL (enhanced chemilumineseance) solution (GE Health Care) (FIG. 6). In FIG. 6, among PD98059 treatment groups, the symbol “Con” is a group incubated with only 10 μM PD98059 and “TGFb1” is a group incubated with both 10 μM PD98059 and 10 ng/ml TGF-β1.

| Compound | tyrosinase activity [1] | melanin generation / melanin content [2] | cell number (cytotoxicity) [3] | cell number (cytotoxicity) [4] | cell number (cytotoxicity) [5] | remaining activity over time (relative to day 0 = 100%) [6] | melanosome number [7] | levels of TRP-1 and TRP-2 [8] | levels of Phospho ERK 1 and ERK 2 [9] |
| --- | --- | --- | --- | --- | --- | --- | --- | --- | --- |
| α-MSH: melanocyte stimulating hormone/Sigma, used to induce melanin generation (Ac-SYSMEHFRWGKPV-NH2; ends and bridges not checked; UniProt P01189 138-150, looked up) [reference compound] | highly elevated level of tyrosinase activity | highly elevated level of melanin production | – | – | – | – | – | – | – |
| CC[C@H](C)[C@H](N)C(=O)N[C@@H](Cc1c[nH]c2ccccc12)C(=O)N[C@@H](CO)C(=O)N[C@@H](CC(C)C)C(=O)N[C@@H](CC(=O)O)C(=O)N[C@H](C(=O)N[C@@H](CCC(N)=O)C(=O)N[C@@H](Cc1ccc(O)cc1)C(=O)NCC(=O)NCC(=O)N[C@@H](CCCNC(=N)N)C(=O)NCC(=O)N[C@@H](CC(=O)O)C(=O)O)[C@@H](C)O [tridecapeptide, NH2-Ile-Trp-Ser-Leu-Asp-Thr-Gln-Tyr-Gly-Gly-Arg-Gly-Asp-OH] (H-IWSLDTQYGGRGD-OH) | – | – | the decrease in cell number was not shown | the decrease in cell number was not shown | the decrease in cell number was not shown | – | – | – | – |
| TGF-β1: recombinant TGF-β1 (Sigma) produced by E. coli, used as control | relatively reduced tyrosinase activity in a dose dependent manner | – | – | – | – | sharply decreased with the lapse of time | significantly reduced melanosome number | decreased | elevated levels of Phoshpo ERK 1 and ERK 2 |
| COc1cccc(-c2cc(=O)c3ccccc3o2)c1N [PD98059, reference compound] | – | – | – | – | – | – | a large number of darkish pigments by induced melanosomes | increased | greatly decrease levels of Phoshpo ERK 1 and ERK 2 |
